Reference: the supplement of paper PMC11451515

System: P12-Ichikawa
Experiment: cell viability relative to DMSO control; higher = less cytotoxic
Settings: 48 h
Outline: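 Library compounds in DMSO were pin-dosed in an 11-point threefold series (47 μM to 0.79 nM) onto leukemia cells in 1536-well plates (5 μl). Plates held 500 cells/well of NOMO1 or SEM or 1000 cells/well of P12-Ichikawa, each adapted for at least four passages in each medium. Luminescence was read with CellTiter-Glo One after 48 h at 37°C. Viability means the per-plate percentage relative to DMSO wells, using cell-free wells as background.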

[1] = HPLM + 10% dialyzed FBS, 0.000781 µM
[2] = HPLM + 10% dialyzed FBS, 0.00234 µM
[3] = HPLM + 10% dialyzed FBS, 0.00702 µM
[4] = HPLM + 10% dialyzed FBS, 0.0211 µM
[5] = HPLM + 10% dialyzed FBS, 0.0632 µM
[6] = HPLM + 10% dialyzed FBS, 0.19 µM
[7] = HPLM + 10% dialyzed FBS, 0.569 µM
[8] = HPLM + 10% dialyzed FBS, 1.71 µM
[9] = HPLM + 10% dialyzed FBS, 5.12 µM
[10] = HPLM + 10% dialyzed FBS, 15.4 µM
[11] = HPLM + 10% dialyzed FBS, 46.1 µM
[12] = RPMI 5 mM glucose + 10% FBS, 0.000781 µM
[13] = RPMI 5 mM glucose + 10% FBS, 0.00234 µM
[14] = RPMI 5 mM glucose + 10% FBS, 0.00702 µM
[15] = RPMI 5 mM glucose + 10% FBS, 0.0211 µM
[16] = RPMI 5 mM glucose + 10% FBS, 0.0632 µM
[17] = RPMI 5 mM glucose + 10% FBS, 0.19 µM
[18] = RPMI 5 mM glucose + 10% FBS, 0.569 µM
[19] = RPMI 5 mM glucose + 10% FBS, 1.71 µM
[20] = RPMI 5 mM glucose + 10% FBS, 5.12 µM
[21] = RPMI 5 mM glucose + 10% FBS, 15.4 µM
[22] = RPMI 5 mM glucose + 10% FBS, 46.1 µM
[23] = RPMI 5 mM glucose + 10% dialyzed FBS, 0.000781 µM
[24] = RPMI 5 mM glucose + 10% dialyzed FBS, 0.00234 µM
[25] = RPMI 5 mM glucose + 10% dialyzed FBS, 0.00702 µM
[26] = RPMI 5 mM glucose + 10% dialyzed FBS, 0.0211 µM
[27] = RPMI 5 mM glucose + 10% dialyzed FBS, 0.0632 µM
[28] = RPMI 5 mM glucose + 10% dialyzed FBS, 0.19 µM
[29] = RPMI 5 mM glucose + 10% dialyzed FBS, 0.569 µM
[30] = RPMI 5 mM glucose + 10% dialyzed FBS, 1.71 µM
[31] = RPMI 5 mM glucose + 10% dialyzed FBS, 5.12 µM
[32] = RPMI 5 mM glucose + 10% dialyzed FBS, 15.4 µM
[33] = RPMI 5 mM glucose + 10% dialyzed FBS, 46.1 µM

| Structure (SMILES) | cell viability [1] [%] | cell viability [2] [%] | cell viability [3] [%] | cell viability [4] [%] | cell viability [5] [%] | cell viability [6] [%] | cell viability [7] [%] | cell viability [8] [%] | cell viability [9] [%] | cell viability [10] [%] | cell viability [11] [%] | cell viability [12] [%] | cell viability [13] [%] | cell viability [14] [%] | cell viability [15] [%] | cell viability [16] [%] | cell viability [17] [%] | cell viability [18] [%] | cell viability [19] [%] | cell viability [20] [%] | cell viability [21] [%] | cell viability [22] [%] | cell viability [23] [%] | cell viability [24] [%] | cell viability [25] [%] | cell viability [26] [%] | cell viability [27] [%] | cell viability [28] [%] | cell viability [29] [%] | cell viability [30] [%] | cell viability [31] [%] | cell viability [32] [%] | cell viability [33] [%] |
| --- | --- | --- | --- | --- | --- | --- | --- | --- | --- | --- | --- | --- | --- | --- | --- | --- | --- | --- | --- | --- | --- | --- | --- | --- | --- | --- | --- | --- | --- | --- | --- | --- | --- |
| CCOCC(O)COc1ccc(NC(=O)CC[S+](C)C)cc1 (stereo unspecified) | 87.3 | 82.5 | 87.9 | 96 | 91.9 | 88.1 | 98.5 | 98 | 93.7 | 99 | 95 | 88.2 | 90.5 | 93 | 97.9 | 91.3 | 95.9 | 95.9 | 97.3 | 94.4 | 104 | 92.3 | 85.3 | 74.7 | 88.7 | 88.8 | 82.7 | 91.3 | 89.5 | 84.6 | 85.6 | 88 | 78.8 |
| CN1CCC(CC1)=C2C3=C(C=CC=C3)\C=C/C4=C2C=CC=C4 | 106 | 125 | 117 | 130 | 122 | 122 | 126 | 133 | 128 | 118 | 108 | – | – | – | – | – | – | – | – | – | – | – | – | – | – | – | – | – | – | – | – | – | – |
| NC(CO)C(=O)NNCc1ccc(O)c(O)c1O (stereo unspecified) | 103 | 93.7 | 99.7 | 103 | 103 | 100 | 87.9 | 90.7 | 90.9 | 92.2 | 54 | 96.5 | 100 | 99.6 | 91 | 105 | 99.5 | 91.7 | 92.8 | 93.6 | 81 | 19.1 | 99.9 | 89 | 94 | 98.3 | 96.5 | 93.7 | 88.6 | 94.2 | 85.3 | 91.4 | 26.5 |
| C[C@H](NCc1ccc(OCc2cccc(F)c2)cc1)C(N)=O | 95.1 | 110 | 107 | 123 | 116 | 122 | 114 | 115 | 104 | 98 | 17.8 | 99.9 | 105 | 112 | 119 | 124 | 126 | 134 | 109 | 103 | 87.4 | 32.9 | 96 | 118 | 109 | 114 | 108 | 116 | 117 | 114 | 102 | 80.5 | 33.4 |
| Cn1cnc([N+](=O)[O-])c1Sc1ncnc2nc[nH]c12 | 95.4 | 97 | 98.4 | 95.7 | 102 | 97.7 | 96.5 | 86 | 36.2 | 28.4 | 29.2 | 81.8 | 88.5 | 82.1 | 88.5 | 99.2 | 95.1 | 90.9 | 79.9 | 64.5 | 28.3 | 19.4 | 88.9 | 95.3 | 98.1 | 91 | 97.2 | 92.1 | 88.5 | 72.6 | 63.2 | 21.2 | 13.7 |
| Cc1ccc(/C=N/NC(=O)c2ccccc2Oc2ccccc2)o1 | 95.5 | 107 | 91.4 | 96.5 | 100 | 98.3 | 94.6 | 94.9 | 89.7 | 89.7 | 79.4 | 94 | 99 | 90.6 | 88.5 | 91.3 | 90.8 | 91.6 | 92.2 | 95.1 | 85.8 | 63.9 | 85.2 | 82.6 | 87.7 | 89.4 | 90.3 | 90.3 | 88.8 | 82.4 | 82.3 | 86.4 | 78.3 |
| C[N]1C=C(C=N1)C2=CC=C3N=CC\4=C(N(C(=O)\C=C4)C5=CC6=C(CCN6C(=O)C=C)C=C5)C3=C2 | 106 | 121 | 109 | 114 | 112 | 115 | 105 | 95.4 | 79.9 | 20.8 | 20.4 | 123 | 112 | 118 | 114 | 110 | 113 | 111 | 98 | 74.6 | 7.13 | 5.07 | 116 | 128 | 117 | 120 | 115 | 126 | 119 | 98.4 | 82.2 | 6.85 | 4.97 |
| N=C(N)NC(=N)N1CCOCC1 | 104 | 108 | 107 | 113 | 106 | 116 | 109 | 104 | 106 | 103 | 108 | 103 | 98.3 | 90.7 | 93.2 | 97.8 | 98.1 | 99.7 | 93.5 | 87.8 | 92.5 | 92.4 | 101 | 105 | 92.4 | 102 | 109 | 93.8 | 99.8 | 96.8 | 91.2 | 86.8 | 98.9 |
| NC\1=N\C(=O)N(\C=C1F)[C@H]2C[C@H](O)[C@@H](CO)O2 | 118 | 127 | 104 | 101 | 90.6 | 65.2 | 43.7 | 45.4 | 37 | 27.9 | 36.9 | – | – | – | – | – | – | – | – | – | – | – | – | – | – | – | – | – | – | – | – | – | – |
| Oc1c(Cl)cc(Cl)c2cccnc12 | 107 | 112 | 109 | 100 | 105 | 107 | 112 | 103 | 109 | 97.4 | 70.6 | 100 | 95.4 | 109 | 107 | 108 | 102 | 101 | 101 | 96.2 | 80.8 | 30.5 | 99.1 | 99.4 | 110 | 95.2 | 102 | 101 | 103 | 99.1 | 96.8 | 85.5 | 21.8 |
| CC(C)c1c(C(=O)Nc2ccccc2)c(-c2ccccc2)c(-c2ccc(F)cc2)n1CC[C@@H](O)C[C@@H](O)CC(=O)[O-] | 101 | 102 | 106 | 99.4 | 98.6 | 97.4 | 106 | 91.2 | 85.7 | 85.2 | 47.2 | 97.5 | 92.6 | 99.6 | 94.7 | 97.1 | 87.9 | 93.3 | 87.6 | 68.4 | 56.3 | 23.2 | 97.4 | 91.9 | 91.2 | 92 | 95.7 | 90.5 | 89.5 | 83.8 | 85.1 | 67.6 | 36.3 |
| Oc1ccc2ccccc2c1SSc1c(O)ccc2ccccc12 | 98.4 | 100 | 105 | 108 | 106 | 109 | 110 | 109 | 109 | 105 | 94.2 | 105 | 114 | 106 | 107 | 101 | 109 | 116 | 109 | 106 | 101 | 62.2 | 88.3 | 98.9 | 95.5 | 109 | 99.2 | 104 | 105 | 103 | 98.3 | 94.3 | 52.3 |
| CCN(CC)CCCC(C)Nc1nc(C)cc(Nc2ccc3nc(C)cc(N)c3c2)n1 (stereo unspecified) | 101 | 107 | 109 | 117 | 122 | 122 | 126 | 115 | 130 | 114 | 118 | 108 | 109 | 104 | 121 | 117 | 126 | 124 | 112 | 129 | 107 | 112 | 107 | 113 | 111 | 120 | 117 | 123 | 126 | 124 | 126 | 118 | 101 |
| CC(C)(Sc1ccc(CCN(CCCCC2CCCCC2)C(=O)NC2CCCCC2)cc1)C(=O)O | 114 | 115 | 116 | 115 | 110 | 109 | 111 | 105 | 107 | 101 | 83.4 | 111 | 112 | 106 | 110 | 109 | 111 | 115 | 102 | 107 | 89 | 86.2 | 113 | 110 | 114 | 122 | 116 | 113 | 104 | 111 | 104 | 102 | 73.5 |
| CCOC(=O)[C@H]1O[C@@H]1C(=O)N[C@@H](CC(C)C)C(=O)NCCC(C)C | 123 | 114 | 121 | 127 | 123 | 123 | 117 | 116 | 117 | 108 | 106 | 128 | 121 | 119 | 118 | 124 | 115 | 127 | 116 | 115 | 106 | 92.9 | 116 | 119 | 115 | 121 | 124 | 119 | 122 | 119 | 118 | 109 | 102 |
